In publication PMC6444013, “Development of a fluorescence-based method for the rapid determination of Zika virus polymerase activity and the screening of antiviral drugs” (Scientific Reports, 2019):

Target: T1, ZIKV RdRp (ZIKV NS5 RdRp domain) (Zika virus, UniProt A0A0X1LH65)
T1 construct: RdRp domain residues 275-903 of NS5, cut from the genome polyprotein; E. coli BL21(DE3)-pRIL; 75 kDa
Test: real-time SYTO […] fluorescence polymerization assay
Type: biochemical

T1 sequence (A0A0X1LH65 2795-3423): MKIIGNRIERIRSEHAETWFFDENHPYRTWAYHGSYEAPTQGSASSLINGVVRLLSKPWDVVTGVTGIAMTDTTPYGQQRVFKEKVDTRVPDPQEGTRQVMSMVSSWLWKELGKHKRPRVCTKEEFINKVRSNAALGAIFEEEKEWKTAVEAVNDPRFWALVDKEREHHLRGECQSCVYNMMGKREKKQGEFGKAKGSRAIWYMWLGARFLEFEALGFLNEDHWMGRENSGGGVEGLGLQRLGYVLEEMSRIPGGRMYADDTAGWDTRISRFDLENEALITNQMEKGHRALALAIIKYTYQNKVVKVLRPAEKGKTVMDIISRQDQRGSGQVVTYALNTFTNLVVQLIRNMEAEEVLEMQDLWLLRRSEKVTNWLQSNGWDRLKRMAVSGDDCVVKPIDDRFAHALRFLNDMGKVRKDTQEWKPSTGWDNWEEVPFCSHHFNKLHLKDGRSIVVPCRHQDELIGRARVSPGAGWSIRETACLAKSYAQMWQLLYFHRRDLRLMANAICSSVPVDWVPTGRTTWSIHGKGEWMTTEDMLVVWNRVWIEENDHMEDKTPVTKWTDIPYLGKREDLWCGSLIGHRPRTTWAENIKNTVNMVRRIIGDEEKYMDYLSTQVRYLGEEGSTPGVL

SMILES | IC50 [µM]
Nc1ncnc2c1ncn2[C@@H]1O[C@H](COP(=O)(O)OP(=O)(O)OP(=O)(O)O)C[C@H]1O [cordycepin 5′-triphosphate] | 54 ± 7
NC(=O)c1ncn([C@@H]2O[C@H](CO[P@@](=O)(O)O[P@](=O)(O)OP(=O)(O)O)[C@@H](O)[C@H]2O)n1 [ribavirin 5′-triphosphate] | 946 ± 46
